The Ki is the equilibrium dissociation constant of an inhibitor or competing ligand from its target. The term IC50 denotes the midpoint of a concentration-inhibition curve.

Structures can show the parent of a compound that is named as a salt.

For one experiment, the target named is human FLAP (Homo sapiens (Human), UniProt P20292). Put plainly: FLAP binding assay (HTRF). The following applies: human FLAP-containing membranes, HTRF format; average of two assay plates, duplicates; read-out: FLAP Binding wild type HTRF Ki. The method in brief:
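Read-out is the HTRF ratio. Each reported figure averages two assay plates on which samples were tested in duplicate.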
In general terms: Time-resolved FRET reads energy transfer from a long-lived donor to a nearby acceptor.

In experiment [1] the test system is leukotriene pathway in human whole blood (LTB4 levels). Nature of the experiment: Human whole blood assay (LTB4). In kind it is cell-based. The following applies: human whole blood diluted 1:1 in RPMI, stimulated with calcium ionophore A23187; single replicate. The method in brief: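 Heparinised human whole blood, diluted 1:1 in RPMI, was pre-incubated with test compounds for 15 min at 37° Celsius, then stimulated with A23187 (7 μg/mL) for 30 min at 37° Celsius. Plasma LTB4 was measured by immunoassay kit; IC50 from 4-parameter fit; single replicate, at least one healthy donor.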

human FLAP, sequence (P20292 whole entry): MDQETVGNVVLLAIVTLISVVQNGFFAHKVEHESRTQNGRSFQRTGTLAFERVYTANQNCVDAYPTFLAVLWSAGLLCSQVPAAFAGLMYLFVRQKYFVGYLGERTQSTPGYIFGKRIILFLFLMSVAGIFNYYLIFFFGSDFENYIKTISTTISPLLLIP

Consider `COc1cc(Oc2c(C3CCC3)ccc(-c3cnc(N)cn3)c2F)ncn1` [Example 97, 5-{4-Cyclobutyl-2-fluoro-3-[(6-methoxypyrimidin-4-yl)oxy]phenyl}pyrazin-2-amine], for which, at human FLAP, the Ki is 32 nM. Besides, the half-inhibitory concentration (IC50) in experiment [1] was found to be 153 nM.
Regarding `CS(=O)(=O)c1ccc(Oc2c(C3CCC3)ccc(-c3cnc(N)cn3)c2F)c(C#N)c1` [Example 132, 2-[3-(5-Aminopyrazin-2-yl)-6-cyclobutyl-2-fluorophenoxy]-5-(methylsulfonyl)benzonitrile], the Ki at human FLAP turned out to be 17 nM. Further, the IC50 in experiment [1] worked out at 133 nM.
As for `Nc1cnc(-c2ccc(C3CCC3)c(Oc3cc(Cl)nc(N)n3)c2F)cn1` [Example 143, 4-[3-(5-Aminopyrazin-2-yl)-6-cyclobutyl-2-fluorophenoxy]-6-chloropyrimidin-2-amine], at human FLAP, the Ki was found to be 2.9 nM. Also, in experiment [1], the 50% inhibitory concentration (IC50) stood at 37.7 nM.
`CC(C)(C)c1ccc(-c2cnc(N)cn2)c(F)c1Oc1nccc(N)n1` [Example 203, 2-[3-(5-Aminopyrazin-2-yl)-6-tert-butyl-2-fluorophenoxy]pyrimidin-4-amine]: the Ki on human FLAP stood at 6.9 nM. Besides, the IC50 in experiment [1] turned out to be 30.8 nM.
On the same counts, the results for `Nc1ncc(-c2ccc(C3CCC3)c(Oc3ncccn3)c2F)cn1` [Example 160, 5-[4-Cyclobutyl-2-fluoro-3-(pyrimidin-2-yloxy)phenyl]pyrimidin-2-amine] are 94.7 nM and 494 nM.
Taken in the same sequence, the figures for `Nc1ccc(-c2ccc(C3CCC3)c(OCc3ccc(C(=O)O)cc3)c2F)cn1` [Example 181, 4-((3-(6-Aminopyridin-3-yl)-6-cyclobutyl-2-fluorophenoxy)methyl)benzoic acid] were 41 nM and 10000 nM.
Regarding `N#Cc1ccc(Oc2c(C3CCC3)ccc(-c3cnc(N)cn3)c2F)cn1` [Example 108, 5-[3-(5-Aminopyrazin-2-yl)-6-cyclobutyl-2-fluorophenoxy]pyridine-2-carbonitrile], on human FLAP, the Ki worked out at 24.6 nM. The half-inhibitory concentration (IC50) in experiment [1] turned out to be 1310 nM.
Turning to `COc1c(C2CCC2)ccc(-c2cnc3[nH]ccc3n2)c1F` [Example 175, 2-(4-cyclobutyl-2-fluoro-3-methoxyphenyl)-5H-pyrrolo[2,3-b]pyrazine], on human FLAP, the Ki is 100 nM. Further, in experiment [1], the IC50 was determined as 1280 nM.
Turning to `CC(C)c1ccnc(Oc2c(C3CCC3)ccc(-c3cnc(N)nc3)c2F)n1` [Example 165, 5-(4-Cyclobutyl-2-fluoro-3-{[4-(1-methylethyl)pyrimidin-2-yl]oxy}phenyl)pyrimidin-2-amine], at human FLAP, the Ki was found to be 5.6 nM. The 50% inhibitory concentration (IC50) in experiment [1] was 304 nM.
Regarding “6-cyclobutyl-2-fluoro-3-(5H-pyrrolo[2,3-b]pyrazin-2-yl)phenol [Example 176]”, the inhibitory constant (Ki) on human FLAP worked out at 100 nM. The IC50 in experiment [1] stood at 892 nM.
Regarding `COc1cc(Oc2c(C(C)(C)C)ccc(-c3cnc(N)cn3)c2F)ncn1` [Example 204, 5-{4-tert-Butyl-2-fluoro-3-[(6-methoxypyrimidin-4-yl)oxy]phenyl}pyrazin-2-amine], the Ki on human FLAP came out at 81.5 nM. The half-inhibitory concentration (IC50) in experiment [1] worked out at 171 nM.
On the same counts, the results for `COc1cnc(Oc2c(C3CCC3)ccc(-c3cnc(N)cn3)c2F)nc1` [Example 94, 5-{4-Cyclobutyl-2-fluoro-3-[(5-methoxypyrimidin-2-yl)oxy]phenyl}pyrazin-2-amine] are 27 nM and 101 nM.
On the same counts, the results for `Nc1cnc(-c2ccc(C3CCC3)c(OCCNc3ccnc(N)n3)c2F)cn1` [Example 332, N^4-(2-(3-(5-Aminopyrazin-2-yl)-6-cyclobutyl-2-fluoro-phenoxy)ethyl)pyrimidine-2,4-diamine] are 45.8 nM and 450 nM.
Consider `Nc1cnc(-c2ccc(C3CCC3)c(OCc3ccccc3-c3nnn[nH]3)c2F)cn1` [Example 22, 5-(4-Cyclobutyl-2-fluoro-3-{[2-(1H-tetrazol-5-yl)benzyl]oxy}phenyl)pyrazin-2-amine], for which the Ki at human FLAP worked out at 6 nM. Besides, the 50% inhibitory concentration (IC50) in experiment [1] is > 10000 nM.
On to `Cc1cc(Oc2c(C3CCC3)ccc(-c3cnc(N)cn3)c2F)nc(N(C)C)n1` [Example 236, 4-(3-(5-Aminopyrazin-2-yl)-6-cyclobutyl-2-fluorophenoxy)-N,N,6-trimethylpyrimidin-2-amine], for which, on human FLAP, the Ki turned out to be 2.2 nM. The IC50 in experiment [1] amounted to 37.1 nM.
For `CC(C)Cc1cc(Oc2c(C3CCC3)ccc(-c3cnc(N)cn3)c2F)nc(N)n1` [Example 242, 4-(3-(5-aminopyrazin-2-yl)-6-cyclobutyl-2-fluorophenoxy)-6-isobutylpyrimidin-2-amine], the inhibition constant (Ki) at human FLAP turned out to be 3.6 nM. Besides, the half-inhibitory concentration (IC50) in experiment [1] is 30 nM.
With `CC(C)c1ccc(-c2cnc(N)cn2)c(F)c1Oc1ncccn1` [Example 318, 5-[2-Fluoro-4-(1-methylethyl)-3-(pyrimidin-2-yloxy)phenyl]pyrazin-2-amine], the inhibitory constant (Ki) at human FLAP worked out at 58.1 nM. In addition, the concentration for half-maximal inhibition (IC50) in experiment [1] amounted to 103 nM.
Consider `CC(C)Cc1ccc(-c2cnc(N)cn2)c(F)c1Oc1ncccn1` [Example 323, 5-(2-Fluoro-4-isobutyl-3-(pyrimidin-2-yloxy)phenyl)pyrazin-2-amine], for which the inhibition constant Ki on human FLAP is 211 nM. In addition, the 50% inhibitory concentration (IC50) in experiment [1] came out at 141 nM.
For `Nc1cnc(-c2ccc(C3CCC3)c(Oc3cc(O)ncn3)c2F)cn1` [Example 98, 6-[3-(5-Aminopyrazin-2-yl)-6-cyclobutyl-2-fluorophenoxy]pyrimidin-4-ol], at human FLAP, the inhibitory constant (Ki) came to 8 nM. For the same compound, in experiment [1], the IC50 turned out to be 175 nM.
In the case of `Cc1ccnc(Oc2c(C3CCC3)ccc(-c3cnc(N)cn3)c2F)n1` [Example 69, 5-{4-cyclobutyl-2-fluoro-3-[(4-methylpyrimidin-2-yl)oxy]phenyl}pyrazin-2-amine], the inhibitory constant (Ki) on human FLAP is 30 nM. Moreover, in experiment [1], the concentration for half-maximal inhibition (IC50) was found to be 73.9 nM.
In the case of `Nc1cnc(-c2ccc(C3CCC3)c(OCC(O)Cn3ccncc3=O)c2F)cn1` (racemic) [Example 54, racemic 1-(3-(3-(5-Aminopyrazin-2-yl)-6-cyclobutyl-2-fluorophenoxy)-2-hydroxypropyl)pyrazin-2(1H)-one], the inhibition constant Ki on human FLAP is 296 nM. In experiment [1], the IC50 worked out at 909 nM.
As for `CC(C)CNc1nccc(Oc2c(C3CCC3)ccc(-c3cnc(N)cn3)c2F)n1` [Example 261, 4-(3-(5-Aminopyrazin-2-yl)-6-cyclobutyl-2-fluorophenoxy)-N-isobutylpyrimidin-2-amine trifluoroacetic acid salt], the inhibitory constant (Ki) on human FLAP was 1.3 nM. Besides, the 50% inhibitory concentration (IC50) in experiment [1] was 40.1 nM.
`Nc1cnc(-c2ccc(C3CCC3)c(Oc3nccc(N4CCC5(CC4)OCCCO5)n3)c2F)cn1` [Example 241, 5-(3-((4-(1,5-dioxa-9-azaspiro[5.5]undecan-9-yl)pyrimidin-2-yl)oxy)-4-cyclobutyl-2-fluorophenyl)pyrazin-2-amine]: at human FLAP, the Ki is 1.2 nM. Besides, the half-inhibitory concentration (IC50) in experiment [1] amounted to 20.7 nM.
Turning to `CC(C)(C)c1ccc(-c2cnc(N)cn2)c(F)c1Oc1ncccn1` [Example 201, 5-[4-tert-Butyl-2-fluoro-3-(pyrimidin-2-yloxy)phenyl]pyrazin-2-amine], the Ki at human FLAP came out at 8.5 nM. In addition, the IC50 in experiment [1] was found to be 51.8 nM.
`CN(C)S(=O)(=O)c1ccc(COc2c(C3CCC3)ccc(-c3cnc(N)cn3)c2F)cc1` [Example 25, 4-{[3-(5-Aminopyrazin-2-yl)-6-cyclobutyl-2-fluorophenoxy]methyl}-N,N-dimethylbenzenesulfonamide]: the Ki on human FLAP stood at 12 nM. The IC50 in experiment [1] was 576 nM.

(Values after US9073876B2, “Flap modulators” (JANSSEN PHARMACEUTICA NV, priority 2013, dated 2015).)
